Data on 16 molecules can be found in patent publication US12404241B2 (Celgene Corporation, priority 2018, dated 2025).

Counter-ions that a name gives are not always drawn.

The assay addresses T1, AR (Homo sapiens, UniProt P10275).
T1 construct: endogenous in cells; host or cells: VCaP cells
T1 sequence (P10275 1-920): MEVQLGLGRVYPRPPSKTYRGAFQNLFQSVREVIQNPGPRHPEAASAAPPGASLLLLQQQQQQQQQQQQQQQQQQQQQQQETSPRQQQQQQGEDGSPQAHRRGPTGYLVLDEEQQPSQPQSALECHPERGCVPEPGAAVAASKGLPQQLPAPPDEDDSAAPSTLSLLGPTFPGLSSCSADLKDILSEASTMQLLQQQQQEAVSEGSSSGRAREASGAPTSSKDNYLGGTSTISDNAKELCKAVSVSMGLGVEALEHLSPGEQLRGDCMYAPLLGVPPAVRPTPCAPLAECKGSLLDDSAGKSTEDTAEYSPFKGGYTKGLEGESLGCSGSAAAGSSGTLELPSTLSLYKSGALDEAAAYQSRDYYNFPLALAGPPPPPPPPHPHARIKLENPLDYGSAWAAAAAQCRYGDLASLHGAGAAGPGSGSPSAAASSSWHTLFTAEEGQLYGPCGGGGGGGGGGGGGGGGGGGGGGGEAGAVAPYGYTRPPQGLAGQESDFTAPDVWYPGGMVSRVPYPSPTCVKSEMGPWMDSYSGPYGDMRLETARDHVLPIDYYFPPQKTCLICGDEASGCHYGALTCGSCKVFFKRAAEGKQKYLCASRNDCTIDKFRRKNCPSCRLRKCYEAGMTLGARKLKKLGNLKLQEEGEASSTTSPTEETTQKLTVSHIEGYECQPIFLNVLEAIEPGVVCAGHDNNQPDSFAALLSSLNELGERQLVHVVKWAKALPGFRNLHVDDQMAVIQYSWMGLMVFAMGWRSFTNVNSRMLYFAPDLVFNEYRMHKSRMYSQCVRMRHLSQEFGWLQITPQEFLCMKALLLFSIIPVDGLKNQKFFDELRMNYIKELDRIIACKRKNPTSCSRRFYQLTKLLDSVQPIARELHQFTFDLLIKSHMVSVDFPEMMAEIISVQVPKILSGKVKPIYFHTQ
The experiment in a line: VCAP AR Degradation Assay. It is filed as cell-based. Particulars: for Y (AR degradation efficiency, % of DMSO control): class symbols *; for DC50: class symbols A-C, read-out: DC50. The method, boiled down: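 AR protein in lysates quantified by sandwich ELISA after 24 h exposure of VCaP cells at 37 °C to 10 concentrations (1:3 steps, 5 μM top, final). Four-parameter logistic fit of percent-of-DMSO levels gave DC50 (50% degradation), EC50 and minimal AR level Y.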

In general, DC50 refers to the concentration giving 50% degradation. With `C[C@@H]1CN(CCOc2ccc(N3C(=S)N(c4ccc(C#N)c(C(F)(F)F)c4)C(=O)C3(C)C)cc2C2CC2)C[C@H](C)N1CC(=O)Nc1cccc(NC2CCC(=O)NC2=O)c1` (stereo partly drawn) [Example 204, 2-((2S,6R)-4-(2-(4-(3-(4-cyano-3-(trifluoromethyl)phenyl)-5,5-dimethyl-4-oxo-2-thioxoimidazolidin-1-yl)-2-cyclopropylphenoxy)ethyl)-2,6-dimethylpiperazin-1-yl)-N-(3-(2,6-dioxopiperidin-3-ylamino)phenyl)acetamide], the “Y (AR degradation efficiency, % of DMSO control)” value is reported as “* (0<Y<=25%)” and the DC50 is < 100 nM.

Regarding `CCCc1cc(N2C(=S)N(c3ccc(C#N)c(C(F)(F)F)c3)C(=O)C2(C)C)ccc1OCCN1CCN(CC(=O)Nc2cccc(NC3CCC(=O)NC3=O)c2)CC1` (centres unmarked) [Example 34, hydrochloride], the “Y (AR degradation efficiency, % of DMSO control)” value was “* (0<Y<=25%)” and the DC50 is < 100 nM.

With `CC1(C)C(=O)N(c2cnc(C#N)c(C(F)(F)F)c2)C(=S)N1c1ccc(OCCN2CCN(CC(=O)Nc3cc(Cl)cc(NC4CCC(=O)NC4=O)c3)CC2)c(CO)c1` (centres unmarked) [Example 91, N-(3-chloro-5-(2,6-dioxopiperidin-3-ylamino)phenyl)-2-(4-(2-(4-(3-(6-cyano-5-(trifluoromethyl)pyridin-3-yl)-5,5-dimethyl-4-oxo-2-thioxoimidazolidin-1-yl)-2-(hydroxymethyl)phenoxy)ethyl)piperazin-1-yl)acetamide], the “Y (AR degradation efficiency, % of DMSO control)” value is recorded as “*** (35%<Y<50%)” and the DC50 is < 100 nM.

In the case of `C[C@H](C(=O)Nc1cccc(NC2CCC(=O)NC2=O)c1)N1CCN(CCOc2ccc(N3C(=S)N(c4ccc(C#N)c(C(F)(F)F)c4)C(=O)C3(C)C)cc2Cl)CC1` (some centres unmarked) [Example 25, hydrochloride], the “Y (AR degradation efficiency, % of DMSO control)” value is listed as “*** (35%<Y<50%)” and the 50% degradation concentration (DC50) was < 100 nM.

For the molecule `CC1(C)C(=O)N(c2ccc(C#N)c(C(F)(F)F)c2)C(=S)N1c1ccc(OCCN2CCN(CC(=O)Nc3cccc(NC4CCC(=O)NC4=O)c3)CC2)c(C2CCC2)c1` (centres unmarked) [Example 31, trifluoroacetate], the “Y (AR degradation efficiency, % of DMSO control)” value is recorded as “* (0<Y<=25%)” and the DC50 was < 100 nM.

For the molecule `CCc1cc(N2C(=S)N(c3ccc(C#N)c(C(F)(F)F)c3)C(=O)C2(C)C)ccc1OCCN1C[C@@H](C)N(CC(=O)Nc2cccc(NC3CCC(=O)NC3=O)c2)C[C@@H]1C` (stereo partly drawn) [Example 121, 2-((2R,5S)-4-(2-(4-(3-(4-cyano-3-(trifluoromethyl)phenyl)-5,5-dimethyl-4-oxo-2-thioxoimidazolidin-1-yl)-2-ethylphenoxy)ethyl)-2,5-dimethylpiperazin-l-yl)-N-(3-(2,6-dioxopiperidin-3-ylamino)phenyl)acetamide], the “Y (AR degradation efficiency, % of DMSO control)” value is recorded as “* (0<Y<=25%)” and the 50% degradation concentration (DC50) was < 100 nM.

Take `CC(C)c1cc(N2C(=S)N(c3ccc(C#N)c(C(F)(F)F)c3)C(=O)C2(C)C)ccc1OCCN1C[C@@H](C)N(CC(=O)Nc2cccc(NC3CCC(=O)NC3=O)c2)[C@@H](C)C1` (stereo partly drawn) [Example 170, 2-((2S,6R)-4-(2-(4-(3-(4-cyano-3-(trifluoromethyl)phenyl)-5,5-dimethyl-4-oxo-2-thioxoimidazolidin-1-yl)-2-isopropylphenoxy)ethyl)-2,6-dimethylpiperazin-1-yl)-N-(3-(2,6-dioxopiperidin-3-ylamino)phenyl)acetamide]: the “Y (AR degradation efficiency, % of DMSO control)” value is “* (0<Y<=25%)” and the DC50 is < 100 nM.

`CCc1cc(N2C(=S)N(c3cnc(C#N)c(C(F)(F)F)c3)C(=O)C2(C)C)ccc1OCCN1CCN(CC(=O)Nc2cc(F)cc(NC3CCC(=O)NC3=O)c2)[C@H](C)C1` (stereo partly drawn) [Example 75, 2-((R)-4-(2-(4-(3-(6-cyano-5-(trifluoromethyl)pyridin-3-yl)-5,5-dimethyl-4-oxo-2-thioxoimidazolidin-1-yl)-2-ethylphenoxy)ethyl)-2-methylpiperazin-1-yl)-N-(3-(2,6-dioxopiperidin-3-ylamino)-5-fluorophenyl)acetamide]: the “Y (AR degradation efficiency, % of DMSO control)” value was “* (0<Y<=25%)” and the 50% degradation concentration (DC50) is < 100 nM.

In the case of `CC1(C)C(=O)N(c2cnc(C#N)c(C(F)(F)F)c2)C(=S)N1c1ccc(OCCN2CCN(CC(=O)Nc3cccc(NC4CCC(=O)NC4=O)c3)CC2)cc1` (centres unmarked) [Example 2, hydrochloride], the “Y (AR degradation efficiency, % of DMSO control)” value is “** (25%<Y<=35%)” and the DC50 is < 100 nM.

Take `CC(C)c1cc(N2C(=S)N(c3cnc(C#N)c(C(F)(F)F)c3)C(=O)C2(C)C)ccc1OCCN1C[C@@H](C)N(CC(=O)Nc2cc(Cl)cc(NC3CCC(=O)NC3=O)c2)C[C@H]1C` (stereo partly drawn) [Example 185, N-(3-chloro-5-(2,6-dioxopiperidin-3-ylamino)phenyl)-2-((2R,5R)-4-(2-(4-(3-(6-cyano-5-(trifluoromethyl)pyridin-3-yl)-5,5-dimethyl-4-oxo-2-thioxoimidazolidin-1-yl)-2-isopropylphenoxy)ethyl)-2,5-dimethylpiperazin-1-yl)acetamide]: the “Y (AR degradation efficiency, % of DMSO control)” value is on record as “* (0<Y<=25%)” and the DC50 was in the range of 100 to 500 nM.

On to `CCc1cc(N2C(=S)N(c3ccc(C#N)c(C(F)(F)F)c3)C(=O)C2(C)C)ccc1OCCN1CCN([C@H](C)C(=O)Nc2cccc(NC3CCC(=O)NC3=O)c2)[C@@H](C)C1` (stereo partly drawn) [Example 274, (2R)-2-((S)-4-(2-(4-(3-(4-cyano-3-(trifluoromethyl)phenyl)-5,5-dimethyl-4-oxo-2-thioxoimidazolidin-1-yl)-2-ethylphenoxy)ethyl)-2-methylpiperazin-1-yl)-N-(3-(2,6-dioxopiperidin-3-ylamino)phenyl)propanamide], for which the “Y (AR degradation efficiency, % of DMSO control)” value is “* (0<Y<=25%)” and the DC50 was < 100 nM.

Regarding `CCc1cc(N2C(=S)N(c3ccc(C#N)c(C(F)(F)F)c3)C(=O)C2(C)C)ccc1OCCN1CCN(C2(C(=O)Nc3cccc(NC4CCC(=O)NC4=O)c3)CC2)CC1` (centres unmarked) [Example 139, 1-(4-(2-(4-(3-(4-cyano-3-(trifluoromethyl)phenyl)-5,5-dimethyl-4-oxo-2-thioxoimidazolidin-1-yl)-2-ethylphenoxy)ethyl)piperazin-1-yl)-N-(3-(2,6-dioxopiperidin-3-ylamino)phenyl)cyclopropanecarboxamide], the “Y (AR degradation efficiency, % of DMSO control)” value is given as “* (0<Y<=25%)” and the DC50 was < 100 nM.

On to `CCc1cc(N2C(=S)N(c3ccc(C#N)c(C(F)(F)F)c3)C(=O)C2(C)C)ccc1OCCN1CCN([C@H](C)C(=O)Nc2cccc(NC3CCC(=O)NC3=O)c2)CC1` (stereo partly drawn) [Example 199, (2R)-2-(4-(2-(4-(3-(4-cyano-3-(trifluoromethyl)phenyl)-5,5-dimethyl-4-oxo-2-thioxoimidazolidin-1-yl)-2-ethylphenoxy)ethyl)piperazin-1-yl)-N-(3-(2,6-dioxopiperidin-3-ylamino)phenyl)propanamide], for which the “Y (AR degradation efficiency, % of DMSO control)” value is reported as “** (25%<Y<=35%)” and the DC50 is < 100 nM.

On to `CC(C)c1cc(N2C(=S)N(c3cnc(C#N)c(C(F)(F)F)c3)C(=O)C23CCC3)ccc1OCCN1C[C@@H](C)N(CC(=O)Nc2cc(Cl)cc(NC3CCC(=O)NC3=O)c2)[C@@H](C)C1` (stereo partly drawn) [Example 195, N-(3-chloro-5-(2,6-dioxopiperidin-3-ylamino)phenyl)-2-((2S,6R)-4-(2-(4-(7-(6-cyano-5-(trifluoromethyl)pyridin-3-yl)-8-oxo-6-thioxo-5,7-diazaspiro[3.4]octan-5-yl)-2-isopropylphenoxy)ethyl)-2,6-dimethylpiperazin-1-yl)acetamide], for which the “Y (AR degradation efficiency, % of DMSO control)” value is listed as “* (0<Y<=25%)” and the DC50 was < 100 nM.

With `C[C@@H]1CN(CCOc2ccc(N3C(=S)N(c4ccc(C#N)c(C(F)(F)F)c4)C(=O)C3(C)C)cc2Cl)CCN1CC(=O)Nc1cccc(NC2CCC(=O)NC2=O)c1` (stereo partly drawn) [Example 276, 2-((R)-4-(2-(2-chloro-4-(3-(4-cyano-3-(trifluoromethyl)phenyl)-5,5-dimethyl-4-oxo-2-thioxoimidazolidin-1-yl)phenoxy)ethyl)-2-methylpiperazin-1-yl)-N-(3-(2,6-dioxopiperidin-3-ylamino)phenyl)acetamide], the “Y (AR degradation efficiency, % of DMSO control)” value is “* (0<Y<=25%)” and the DC50 is < 100 nM.

In the case of `CCc1cc(N2C(=S)N(c3ccc(C#N)c(C(F)(F)F)c3)C(=O)C2(C)C)ccc1OCCN1C[C@@H](C)N(CC(=O)Nc2cccc(NC3CCC(=O)NC3=O)c2)[C@H](C)C1` (stereo partly drawn) [Example 129, 2-((2R,6R)-4-(2-(4-(3-(4-cyano-3-(trifluoromethyl)phenyl)-5,5-dimethyl-4-oxo-2-thioxoimidazolidin-1-yl)-2-ethylphenoxy)ethyl)-2,6-dimethylpiperazin-1-yl)-N-(3-(2,6-dioxopiperidin-3-ylamino)phenyl)acetamide], the “Y (AR degradation efficiency, % of DMSO control)” value is given as “* (0<Y<=25%)” and the DC50 is < 100 nM.
